US12661331B2 (priority 2019, dated 2026)

Test system: PUUV
Design: species or system AG129 mice
Settings: mouse, in vivo

O=C(O)c1ccc(F)c(F)c1Nc1ccc(I)cc1Cl [ATR-002, 2-(2-chloro-4-iodophenylamino)-N-3,4-difluoro benzoic acid]
virus in the kidney: no virus could be detected
virus in the lung: no virus could be detected
virus titer reduction compared to animals treated with solvent only (75 mg/kg/day): complete virus titer reduction
